The experiment relates to 16S RNA versus modified 16S RNA (5IU1495). The experiment can be described thus: Dissociation rate of binary ligand complexes versus relative energy (capillary exit-skimmer voltage), ESI-FT-ICR MS. Type of experiment: binding, E. coli. The settings on record: Example 8: 2-deoxystreptamine 100 μM, RNAs 2.5 μM each. The method, then:
The following examples illustrate preferred embodiments of the present invention using mass spectrometry. Experiments were performed using a 7.0 Tesla Fourier transform ion cyclotron resonance (FT-ICR) mass spectrometer with an electrospray ionization source operating in the negative mode. A −3000 V difference was employed between the spray tip and the inlet capillary to generate the electrospray. Samples were introduced at a flow rate of 1.5 uL/min using a Harvard syringe pump and a 50 uL glass syringe. The desolvation of the electrospray droplets was aided by a flow of countercurrent gas at 1 L/min. Ions were accumulated for 1.0 sec in an intermediate hexapole ion storage region at 1.0×10^−5 mbar. Following transfer to the FT-ICR analysis cell, the image current was measured over a mass range of 500-4000 m/z. Typically, a total of 32 transients containing 512 kbytes were summed prior to Fourier transformation. […]
An aqueous solution containing 50 mM ammonium acetate buffer (pH 7.0), 33% isopropyl alcohol, 2-deoxystreptamine (100 μM), 16S RNA (2.5 μM) and a modified 16S RNA (2.5 μM) was prepared. […] The peaks were integrated and ion abundances determined for each of the separate runs. Fractions of 16S+2-DOS and 5IU1495+2-DOS complexes were determined and plotted according to relative energy as depicted in FIG. 6. […]

1 compound from patent US6787315B2, “Methods for identifying ligand binding sites in a biomolecule” (priority 2001, dated 2004) can be followed below.

In the case of `N[C@@H]1C[C@H](N)[C@@H](O)C(O)[C@H]1O` (some centres unmarked) [2-deoxystreptamine], the “Difference in dissociation rate (slope) between the 16S and 5IU1495 systems, first region” value (1 to 2 relative energy units (FIG. 6)) is listed as “about 25%”. Further, the “Dissociation rate (slope) of 16S versus 5IU1495 systems, higher energy region” value (2 to 4 relative energy units (FIG. 6)) is “substantially equal”.
